Consider 35 compounds from ChEMBL document CHEMBL1155206, “Synthesis and in vitro evaluation of 2,4-diamino-1,3,5-triazine derivatives as neuronal voltage-gated sodium channel blockers” (Bioorg Med Chem Lett, 2009).

By IC50 is commonly meant the concentration at which inhibition is half-maximal.

One assay concerns the target T1, Dihydrofolate reductase (Bos taurus, UniProt P00376).
T1 sequence (P00376 whole entry): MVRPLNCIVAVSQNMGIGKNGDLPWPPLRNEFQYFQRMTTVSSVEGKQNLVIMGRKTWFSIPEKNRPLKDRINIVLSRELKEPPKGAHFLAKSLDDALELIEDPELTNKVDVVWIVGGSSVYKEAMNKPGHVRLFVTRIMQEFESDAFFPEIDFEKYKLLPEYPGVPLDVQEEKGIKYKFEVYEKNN
Briefly: Inhibition of bovine liver DHFR assessed as NADPH consumption during conversion of dihydrofolic acid to tetrahydrofolic acid.

Assay [1] in a line: Displacement of [3H]BTX-B from neurotoxin site 2 of voltage gated sodium channel in rat cerebral cortex synaptoneurosomes after 30 mins by scintillation counting. The assay is classed as tissue-based. On the technique in general: In a radioligand displacement assay an active substance lowers the binding of a labelled ligand.

Bounds are passed on as bounds.

Take `Cc1ccccc1N1C(N)=NC(N)=NC12CCCCC2`: the figures for the IC50 (at Dihydrofolate reductase; in assay [1]) were over 100 µM and 9.1 µM, respectively.

`COc1ccc(CN2C(N)=NC(N)=NC2(C)C)cc1`: the IC50 on Dihydrofolate reductase turned out to be 58.8 µM; in assay [1], 59.8 µM.

For the compound `CC1(C)N=C(N)N=C(Nc2ccccc2)N1`, the figures for the IC50 (on Dihydrofolate reductase; in assay [1]) were over 100 µM and 259 µM, respectively.

In the case of `COc1ccccc1NC1=NC(N)=NC(C)(C)N1`, the IC50 at Dihydrofolate reductase was over 100 µM; in assay [1] it was 343 µM.

`NC1=NC2(CCCCC2)N(c2cccc(Cl)c2)C(N)=N1`: the figures for the IC50 (at Dihydrofolate reductase; in assay [1]) were over 100 µM and 4 µM, respectively.

With `Nc1nc(CCl)nc(Nc2cccc(Br)c2)n1`, the IC50 was over 100 µM at Dihydrofolate reductase and 172 µM in assay [1].

With `CC1(C)N=C(N)N=C(Nc2ccccc2Br)N1`, the IC50 was over 100 µM on Dihydrofolate reductase and 57.5 µM in assay [1].

For the compound `NC1=NC2(CCCCC2)N(c2ccc(Cl)cc2)C(N)=N1`, the IC50 at Dihydrofolate reductase was over 100 µM; in assay [1], 4.4 µM.

With `CC1(C)N=C(N)N=C(N)N1Cc1ccc(Cl)c(Cl)c1`, the IC50 at Dihydrofolate reductase worked out at 12.8 µM; in assay [1], 19 µM.

Take `CC1(C)N=C(N)N=C(Nc2cccc(Br)c2)N1`: the IC50 at Dihydrofolate reductase was over 100 µM; in assay [1] it was 12.6 µM.

For `Cc1ccc(N2C(N)=NC(N)=NC23CCCCC3)cc1`, the IC50 was over 100 µM at Dihydrofolate reductase and 4.2 µM in assay [1].

Take `CC1(C)N=C(N)N=C(N)N1Cc1ccc(Cl)cc1`: the IC50 at Dihydrofolate reductase amounted to 29.9 µM; in assay [1], 35.3 µM.

For `NC1=NC2(CCCCC2)N(c2ccccc2)C(N)=N1`, the values for the IC50 (on Dihydrofolate reductase; in assay [1]) were over 100 µM and 14.7 µM, respectively.

For the compound `NC1=NC2(CCCCC2)N(c2ccccc2Cl)C(N)=N1`, the results for the IC50 (at Dihydrofolate reductase; in assay [1]) were over 100 µM and 13 µM, respectively.

On to `CC1(C)N=C(N)N=C(Nc2ccccc2Cl)N1`, for which the values for the IC50 (at Dihydrofolate reductase; in assay [1]) were over 100 µM and 85.5 µM, respectively.

As for `Cc1nc(N)nc(Nc2ccc(Cl)c(Cl)c2)n1`, the IC50 is over 100 µM on Dihydrofolate reductase and 274 µM in assay [1].

Consider `Cc1cccc(NC2=NC(N)=NC(C)(C)N2)c1`, for which the IC50 at Dihydrofolate reductase was over 100 µM; in assay [1], 186 µM.

On to `Cc1ccc(NC2=NC(N)=NC(C)(C)N2)cc1`, for which the results for the IC50 (on Dihydrofolate reductase; in assay [1]) were over 100 µM and 71.5 µM, respectively.

`COc1cccc(N2C(N)=NC(N)=NC23CCCCC3)c1`: the IC50 on Dihydrofolate reductase is over 100 µM; in assay [1] it was 5.1 µM.

As for `CC1(C)N=C(N)N=C(N)N1Cc1ccccc1`, the figures for the IC50 (on Dihydrofolate reductase; in assay [1]) were 19.5 µM and 53.2 µM, respectively.

With `COc1cccc(NC2=NC(N)=NC(C)(C)N2)c1`, the IC50 is over 100 µM on Dihydrofolate reductase and 76.2 µM in assay [1].

Turning to `O=C1NC(=O)C(c2ccccc2)(c2ccccc2)N1` [PHENYTOIN], the IC50 is over 100 µM at Dihydrofolate reductase and 126 µM in assay [1].

With `CC1(C)N=C(N)N=C(Nc2cccc(Cl)c2)N1`, the IC50 was over 100 µM on Dihydrofolate reductase and 16.5 µM in assay [1].

`Cc1ccc(CN2C(N)=NC(N)=NC2(C)C)cc1`: the IC50 at Dihydrofolate reductase turned out to be 24.6 µM; in assay [1], 32.2 µM.

`COc1ccc(N2C(N)=NC(N)=NC23CCCCC3)cc1`: the IC50 was over 100 µM at Dihydrofolate reductase and 7.8 µM in assay [1].

As for `Cc1ccccc1NC1=NC(N)=NC(C)(C)N1`, the IC50 on Dihydrofolate reductase is over 100 µM; in assay [1], 582 µM.

In the case of `Nc1nc(CCl)nc(Nc2cccc([N+](=O)[O-])c2)n1`, the IC50 was over 100 µM on Dihydrofolate reductase and 190 µM in assay [1].

With `COc1ccccc1N1C(N)=NC(N)=NC12CCCCC2`, the IC50 on Dihydrofolate reductase was over 100 µM; in assay [1], 12.3 µM.

On to `Cc1cccc(N2C(N)=NC(N)=NC23CCCCC3)c1`, for which the values for the 50% inhibitory concentration (IC50) (on Dihydrofolate reductase; in assay [1]) were over 100 µM and 4.7 µM, respectively.

In the case of `Nc1nc(CCl)nc(Nc2ccc(Cl)c(Cl)c2)n1`, the IC50 on Dihydrofolate reductase is over 100 µM; in assay [1], 168 µM.

For the compound `COc1ccc(NC2=NC(N)=NC(C)(C)N2)cc1`, the IC50 at Dihydrofolate reductase was over 100 µM; in assay [1], 207 µM.

In the case of `CC1(C)N=C(N)NC(Nc2ccc(Br)cc2)=N1`, the IC50 on Dihydrofolate reductase is over 100 µM; in assay [1], 18.4 µM.

With `CC1(C)N=C(N)N=C(Nc2ccc(Cl)cc2)N1`, the IC50 on Dihydrofolate reductase was over 100 µM; in assay [1], 24.7 µM.

Consider `Cc1nc(N)nc(Nc2cccc(Br)c2)n1`, for which the figures for the IC50 (at Dihydrofolate reductase; in assay [1]) were over 100 µM and 198 µM, respectively.

Regarding `Cc1nc(N)nc(Nc2cccc(Cl)c2)n1`, the IC50 was over 100 µM at Dihydrofolate reductase and 246 µM in assay [1].
